Experimental data as given in the supplement of paper PMC11061612.

Columns and labels:
Experiment in all cases: combination Emax (second highest fraction inhibited in the dose matrix, 72 h); higher = more inhibition; extreme values may be limits of the assay
[1] = system: ONS-76 (Other Solid Carcinomas)
Outline: (§1)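 After 24 hours at 37°C and 5% CO2 in 1536-well plates, cells in DMEM/F12 or RPMI plus 10% FBS received two-drug dose matrices for 72 hours. Viability came from CellTiter-Glo 2.0 luminescence and was scaled as inhibition, anchored at 0 by vehicle wells and at 1 by blank wells. Combination Emax is taken as the second-highest inhibition in the matrix, and Bliss excess as the observed combination effect less EA + EB − EA·EB, with EA and EB the single-agent effects.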

[2] = system: COLO-824 (Breast Carcinoma)
Outline: as §1

[3] = system: LN-405 (Glioblastoma)
Outline: as §1

[4] = system: CAS-1 (Glioblastoma)
Outline: as §1

[5] = system: NCI-H1650 (Lung Adenocarcinoma)
Outline: as §1

[6] = system: GI-ME-N (Neuroblastoma)
Outline: as §1

[7] = system: CCK-81 (Colorectal Carcinoma)
Outline: as §1

[8] = system: CAPAN-2 (Pancreatic Carcinoma)
Outline: as §1

[9] = system: JSC-1 (B-Cell Non-Hodgkin's Lymphoma)
Outline: as §1

[10] = system: NY (Osteosarcoma)
Outline: as §1

[11] = system: SK-MG-1 (Low Grade Glioma)
Outline: as §1

[12] = system: A549 (Lung Adenocarcinoma)
Outline: as §1

[13] = system: OS-RC-2 (Kidney Carcinoma)
Outline: as §1

[14] = system: TT (Thyroid Gland Carcinoma)
Outline: as §1

[15] = system: SISO (Cervical Carcinoma)
Outline: as §1

[16] = system: PA-1 (Ovarian Carcinoma)
Outline: as §1

[17] = system: VCaP (Prostate Carcinoma)
Outline: as §1

[18] = system: CAL-29 (Bladder Carcinoma)
Outline: as §1

[19] = system: U-2-OS (Osteosarcoma)
Outline: as §1

[20] = system: NCI-H1581 (Non-Small Cell Lung Carcinoma)
Outline: as §1

CN(CCO)CC[C@H](CSc1ccccc1)Nc1ccc(S(=O)(=O)NC(=O)c2ccc(N3CCC([C@@H](O)c4ccccc4-c4ccc(Cl)cc4)CC3)cc2)cc1S(=O)(=O)C(F)(F)F [AZD4320] + Cn1cnc2c(F)c(Nc3ccc(Br)cc3Cl)c(C(=O)NOCCO)cc21 [Selumetinib] (first compound max 1 µM, 7x7, partner max 3 µM)
combination Emax [1]: 0.628
combination Emax [2]: 1
combination Emax [3]: 0.646
combination Emax [4]: 0.575
combination Emax [5]: 0.318
combination Emax [6]: 0.345
combination Emax [7]: 0.491
combination Emax [8]: 0.772
combination Emax [9]: 0.707
combination Emax [10]: 0.556
combination Emax [11]: 0.441
combination Emax [12]: 0.671
combination Emax [13]: 0.347
combination Emax [14]: 0.781
combination Emax [15]: 0.304
combination Emax [16]: 0.8
combination Emax [17]: 0.208
combination Emax [18]: 0.634
combination Emax [19]: 0.516
combination Emax [20]: 0.4

CN(CCO)CC[C@H](CSc1ccccc1)Nc1ccc(S(=O)(=O)NC(=O)c2ccc(N3CCC([C@@H](O)c4ccccc4-c4ccc(Cl)cc4)CC3)cc2)cc1S(=O)(=O)C(F)(F)F [AZD4320] + C1CN(CCC1(C(=O)N[C@@H](CCO)C2=CC=C(C=C2)Cl)N)C3=NC=NC4=C3C=CN4 [Capivasertib] (first compound max 1 µM, 7x7, partner max 3 µM)
combination Emax [1]: 0.221
combination Emax [2]: 1
combination Emax [3]: 0.45
combination Emax [4]: 0.327
combination Emax [5]: 0.143
combination Emax [6]: 0.153
combination Emax [7]: 0.135
combination Emax [8]: 0.576
combination Emax [9]: 0.124
combination Emax [10]: 0.0978
combination Emax [11]: 0.413
combination Emax [12]: 0.354
combination Emax [13]: 0.337
combination Emax [14]: 0.408
combination Emax [15]: 0.0618
combination Emax [16]: 0.743
combination Emax [17]: 0.404
combination Emax [18]: 0.221
combination Emax [19]: 0.225
combination Emax [20]: 0.0979

CC(=O)Nc1cccc(-n2c(=O)n(C3CC3)c(=O)c3c(Nc4ccc(I)cc4F)n(C)c(=O)c(C)c32)c1 [Trametinib] + Cc1nc(-c2cn3c(n2)-c2ccc(-c4cnn(C(C)(C)C(N)=O)c4)cc2OCC3)n(C(C)C)n1 [Taselisib] (first compound max 1 µM, 7x7, partner max 10 µM)
combination Emax [1]: 0.975
combination Emax [2]: 0.976
combination Emax [3]: 0.76
combination Emax [4]: 0.957
combination Emax [5]: 0.695
combination Emax [6]: 0.77
combination Emax [7]: 0.98
combination Emax [8]: 0.578
combination Emax [9]: 0.631
combination Emax [10]: 0.747
combination Emax [11]: 0.85
combination Emax [12]: 1
combination Emax [13]: 0.627
combination Emax [14]: 0.666
combination Emax [15]: 0.447
combination Emax [16]: 1
combination Emax [17]: 0.47
combination Emax [18]: 0.956
combination Emax [19]: 1
combination Emax [20]: 0.586

COc1nnc2ccc(N3CCC(c4ccc(OCCN5CCN(C)C(=O)[C@H]5C)cc4)CC3)nn12 [AZD5153] + CC1(C)CCC(CN2CCN(c3ccc(C(=O)NS(=O)(=O)c4ccc(NCC5CCOCC5)c([N+](=O)[O-])c4)c(Oc4cnc5[nH]ccc5c4)c3)CC2)=C(c2ccc(Cl)cc2)C1 [Venetoclax] (first compound max 1 µM, 7x7, partner max 1 µM)
combination Emax [1]: 0.538
combination Emax [2]: 0.881
combination Emax [3]: 0.441
combination Emax [4]: 0.622
combination Emax [5]: 0.394
combination Emax [6]: 0.285
combination Emax [7]: 0.848
combination Emax [8]: 0.299
combination Emax [9]: 0.769
combination Emax [10]: 0.542
combination Emax [11]: 0.425
combination Emax [12]: 0.707
combination Emax [13]: 0.273
combination Emax [14]: 0.596
combination Emax [15]: 0.33
combination Emax [16]: 0.862
combination Emax [17]: 0.777
combination Emax [18]: 0.327
combination Emax [19]: 0.321
combination Emax [20]: 0.469

CCc1c2c(nc3ccc(O)cc13)-c1cc3c(c(=O)n1C2)COC(=O)[C@]3(O)CC [SN-38] + CN(C)CCCOc1ccc(-c2ccc3ncc4c(c3c2)n(C2CCOCC2)c(=O)n4C)cn1 [AZD0156] (first compound max 0.3 µM, 7x7, partner max 1 µM)
combination Emax [1]: 0.805
combination Emax [2]: 0.509
combination Emax [3]: 0.259
combination Emax [4]: 0.494
combination Emax [5]: 0.501
combination Emax [6]: 0.345
combination Emax [7]: 0.673
combination Emax [8]: 0.206
combination Emax [9]: 0.983
combination Emax [10]: 0.855
combination Emax [11]: 0.833
combination Emax [12]: 0.755
combination Emax [13]: 0.443
combination Emax [14]: 0.827
combination Emax [15]: 0.928
combination Emax [16]: 0.845
combination Emax [17]: 0.391
combination Emax [18]: 0.928
combination Emax [19]: 0.0889
combination Emax [20]: 0.785

Cn1cnc2c(F)c(Nc3ccc(Br)cc3Cl)c(C(=O)NOCCO)cc21 [Selumetinib] + C[C@@H]1COCCN1C2=NC(=NC(=C2)C3(CC3)[S@](=N)(=O)C)C4=C5C=CNC5=NC=C4 [AZD6738] (first compound max 10 µM, 7x7, partner max 10 µM)
combination Emax [1]: 0.771
combination Emax [2]: 0.718
combination Emax [3]: 0.405
combination Emax [4]: 0.545
combination Emax [5]: 0.333
combination Emax [6]: 0.312
combination Emax [7]: 0.923
combination Emax [8]: 0.428
combination Emax [9]: 0.957
combination Emax [10]: 0.617
combination Emax [11]: 0.387
combination Emax [12]: 0.875
combination Emax [13]: 0.304
combination Emax [14]: 0.316
combination Emax [15]: 0.43
combination Emax [16]: 0.855
combination Emax [17]: 0.303
combination Emax [18]: 0.696
combination Emax [19]: 0.624
combination Emax [20]: 0.545

Cn1cnc2c(F)c(Nc3ccc(Br)cc3Cl)c(C(=O)NOCCO)cc21 [Selumetinib] + C=CCn1c(=O)c2cnc(Nc3ccc(N4CCN(C)CC4)cc3)nc2n1-c1cccc(C(C)(C)O)n1 [AZD1775] (first compound max 10 µM, partner max 1 µM)
combination Emax [1]: 0.682
combination Emax [2]: 0.76
combination Emax [3]: 0.148
combination Emax [4]: 0.39
combination Emax [5]: 0.34
combination Emax [6]: 0.209
combination Emax [7]: 0.885
combination Emax [8]: 0.419
combination Emax [9]: 0.945
combination Emax [10]: 0.527
combination Emax [11]: 0.449
combination Emax [12]: 0.779
combination Emax [13]: 0.244
combination Emax [14]: 0.305
combination Emax [15]: 0.539
combination Emax [16]: 0.875
combination Emax [17]: 0.509
combination Emax [18]: 0.654
combination Emax [19]: 0.699
combination Emax [20]: 0.639

Cc1c2c(nn1C)CSCc1cc(n(C)n1)CSc1cc(c3ccccc3c1)OCCCc1c(C(=O)O)n(C)c3c-2c(Cl)ccc13 [AZD5991] + CN(C)CCCOc1ccc(-c2ccc3ncc4c(c3c2)n(C2CCOCC2)c(=O)n4C)cn1 [AZD0156] (first compound max 1 µM, 7x7, partner max 1 µM)
combination Emax [1]: 0.239
combination Emax [2]: 0.411
combination Emax [3]: 0.376
combination Emax [4]: 0.532
combination Emax [5]: 0.2
combination Emax [6]: 0.307
combination Emax [7]: 0.88
combination Emax [8]: 0.276
combination Emax [9]: 1
combination Emax [10]: 0.399
combination Emax [11]: 0.539
combination Emax [12]: 0.323
combination Emax [13]: 0.25
combination Emax [14]: 0.297
combination Emax [15]: 0.201
combination Emax [16]: 0.855
combination Emax [17]: 0.913
combination Emax [18]: 0.545
combination Emax [19]: 0.263
combination Emax [20]: 0.976

COc1cccc(OCCCN)c1-c1cc(Nc2cnc(C#N)cn2)n[nH]1 [Prexasertib] + Cc1cc2ncnn2cc1Nc1ncc2c(n1)n(C1CCOCC1)c(=O)n2C [AZD7648] (first compound max 1 µM, 7x7, partner max 10 µM)
combination Emax [1]: 0.862
combination Emax [2]: 0.783
combination Emax [3]: 0.445
combination Emax [4]: 0.71
combination Emax [5]: 0.55
combination Emax [6]: 0.563
combination Emax [7]: 0.903
combination Emax [8]: 0.593
combination Emax [9]: 1
combination Emax [10]: 0.674
combination Emax [11]: 0.826
combination Emax [12]: 0.63
combination Emax [13]: 0.469
combination Emax [14]: 0.611
combination Emax [15]: 0.759
combination Emax [16]: 0.734
combination Emax [17]: 0.729
combination Emax [18]: 0.79
combination Emax [19]: 0.913
combination Emax [20]: 0.418

C[C@@H](c1ccc2nccn2c1)n1nnc2ncc(-c3cnn(C)c3)nc21 [Savolitinib] + Cc1c2c(nn1C)CSCc1cc(n(C)n1)CSc1cc(c3ccccc3c1)OCCCc1c(C(=O)O)n(C)c3c-2c(Cl)ccc13 [AZD5991] (first compound max 1 µM, 7x7, partner max 1 µM)
combination Emax [1]: 0.153
combination Emax [2]: 0.356
combination Emax [3]: 0.256
combination Emax [4]: 0.194
combination Emax [5]: 0.132
combination Emax [6]: 0.245
combination Emax [7]: 0.678
combination Emax [8]: 0.166
combination Emax [9]: 1
combination Emax [10]: 0.442
combination Emax [11]: 0.124
combination Emax [12]: 0.22
combination Emax [13]: 0.19
combination Emax [14]: 0.244
combination Emax [15]: 0.0507
combination Emax [16]: 0.885
combination Emax [17]: 0.946
combination Emax [18]: 0.186
combination Emax [19]: 0.18
combination Emax [20]: 0.951
